Data reported in patent US20240360153A1 (Regeneron Pharmaceuticals, Inc., priority 2023, published 2024).

Assays:
[1] = In vitro microsomal metabolic stability, human liver microsomes; format: in vitro ADME; conditions: for Remaining (T = 60 min): with NADPH; for Remaining (T = NCF60 min): without NADPH regenerating system; for Remaining (T = 60 min) / Remaining (T = NCF60 min): 60 min
Description: (§1) Buffers: PBK Buffer: 50 mM potassium phosphate buffer (PPB), pH 7.2, with 3.3 mM Magnesium Chloride.
(§2) TA Intermediate solution: Compound or control (3 μL) diluted from stock solution (10 mM) with 297 μL 90.0% methanol/water. (Conc: 100 μM; 1.0% DMSO, 89.1% MeOH).
(§3) Control cocktail intermediate solution: Each control (3 μL) was diluted with 291 μL 90.0% methanol/water.
(§4) Diluted TA intermediate stock solution and PC control stock were made by transferring 80 μL of 100 μM TA stock solution into new tubes and then adding 720 μL of 1.0% DMSO in 50 mM potassium phosphate buffer (conc. 10 μM; 1.0% DMSO, 8.91% MeOH).
(§5) Preparation of Liver microsomes working solution (1.25×)(final Conc.: 0.5 mg/mL).
(§6) Acetonitrile:methanol (9:1, v/v)(including 200 ng/mL tolbutamide and 200 ng/ml labetalol hydrochloride as internal standards).
(§7) Working solution: Intermediate solution (80 μL) was diluted with 720 μL 1.0% DMSO in 50 mM potassium phosphate buffer (Conc.: 10 μM; 1.0% DMSO, 8.91% MeOH)
(§8) Procedure: Stock solution was added to each of the time point plates. Microsomes solution (360 μL/well), TA/PC (45 μL/well), and NADPH (45 μL/well) min. (Conc: 1.0 μM, 0.10% DMSO, 0.891% MeOH) were added to the incubation plates. To the T60 and NCF60 plate, TA (15 ul/well) and Microsomes (120 ul) were added. To the blank plate, microsome (50 ul/well) with stop solution (150 ul/well) were added. At the end of each time point, 50 ul/well was aliquoted from the incubation plate. The sampling plates were shaken for approximately 10 min. on a shaker and the samples were centrifuged at 4000 rpm for 15 min. Supernatant (120 μL) was transferred for LC/MS/MS.Compounds from Table 3 were incubated at 37° C. with liver microsomes (pooled from multiple donors) at 1 μM in the presence of a NADPH regenerating system at 0.5 mg/ml microsomal protein. Positive controls included testosterone (3A4 substrate), propafenone (2D6) and diclofenac (2C9), which were incubated with microsomes in the presence of an NADPH regenerating system. At time points (0, 5, 10, 20, 30 and 60 minutes), samples were removed and immediately mixed with cold acetonitrile containing the internal standard (IS). Test compounds incubated with microsomes without the NADPH regenerating system for 60 min are also included. A single point for each test condition (n=1) was obtained, and samples were analyzed by LC/MS/MS. Disappearance of the test compound was assessed based on peak area ratios of analyte/IS (no standard curve).

[2] = In vitro microsomal metabolic stability, CD-1 mouse liver microsomes; format: in vitro ADME; conditions: for Remaining (T = 60 min): with NADPH; for Remaining (T = NCF60 min): without NADPH regenerating system; for Remaining (T = 60 min) / Remaining (T = NCF60 min): 60 min
Description: as §1, §2, §3, §4, §5, §6, §7, §8

[3] = test system: S6K1 (Thr389) phosphorylation (mTORC1 activity) in FKBP12 knock-out 293T cells; assay: Inhibition of S6K1 (Thr389) phosphorylation in FKBP12 knock-out 293T cells (ELISA); format: cell-based, human; conditions: for selectivity for FKBP12 compared with RAD001 (in words): wild-type versus FKBP12 knock-out cells
Excerpt: Example Generation of FKBP 12 knock-out cells. A CRISPR/Cas9 system was used to deliver ribonucleoprotein complexes containing guide RNA sequences that target FKBP12 (ac[…], location 1369062; ccactactcac[…], location 1369181) in HEK293T cells using Lipofectamine CRISPRMAX transfection reagent (Invitrogen CMAX00008). Cell clones were screened by immunoblotting with anti-FKBP-specific antibody (Novus, NB300-508). Single cells that were deficient for FKBP12 protein were selected and cloned.
(§9) Treatment of wild-type (WT) and FKBP12 knock-out 293T cells with RAD001 (everolimus) and test compounds. WT and FKBP12 knock-out 293T cells were cultured in Dulbecco's modified Eagle's medium (Gibco #11971-025) supplemented with 10% fetal bovine serum (Gibco #26140-079). Cells were plated at a density of 15,000 cells per well in poly-D-Lysine coated 96-well plates (Corning, #354461) and were incubated at 37° C., 5% CO2 for 24 hours until they reached ˜80% confluence. Cells were treated with RAD001 or test compounds reconstituted in dimethyl sulfoxide (DMSO) using a 8-11-point dose range, from 0.001 pM to 10 μM. All treatments were performed in duplicates for 2 hours at 37° C. Cell culture media supplemented with blank dimethyl sulfoxide (DMSO) was used as a negative control for all compounds. Phosphorylated amounts of S6K1 (Thr389) were measured using an ELISA kit (Invitrogen 85-86052-11), following the manufacture's protocol.
(§10) S6K1 is an immediate downstream target of mTORC1 and therefore phosphorylation of S6K1 at Thr389 residue is used to measure mTORC1 activity (PMID: 16968213). Amounts of phosphorylated S6K1 (Thr389) were measured in WT and FKBP12 knock-out 293T cells treated with either RAD001 or Compound 44 (FIGS. 1A and 1B), and Compound 45 (FIGS. 1C and 1D).

[4] = test system: S6K1 (Thr389) phosphorylation (mTORC1 activity) in wild-type (WT) 293T cells; assay: Inhibition of S6K1 (Thr389) phosphorylation in wild-type 293T cells (ELISA); format: cell-based, human; conditions: for fold lower potency compared with RAD001 (by IC50) / extent of inhibition of S6K1 (Thr389) phosphorylation: wild-type cells; for extent of inhibition of S6K1 (Thr389) phosphorylation: with increasing concentrations; for IC50: Homo sapiens, HEK-293T, 2 h, wild-type 293T cells, 2 hours treatment
Description: as §9, §10

[5] = Mouse liver microsomes, 1 μM, 0.5 mg/ml protein, NADPH
[6] = human, human liver microsomes, pH 7.2
[7] = CD-1, mouse, mouse liver microsomes, pH 7.2

CO[C@H]1C[C@@H]2CC[C@@H](C)[C@@](O)(O2)C(=O)C(=O)N2CCCC[C@H]2C(=O)O[C@H]([C@H](C)C[C@@H]2CC[C@@H](O)[C@H](OC)C2)CC[C@H](C)/C=C(\C)[C@@H](O)[C@@H](OC)C(=O)[C@H](C)C[C@H](C)/C=C/C=C/C=C/1C [32-Deoxo Rapamycin, 32-deoxorapamycin, reference compound]
CL ([1]; Human liver microsomes): 405 µL/min/mg | CLint ([1]; Human liver microsomes): 364 mL/min/kg | T1/2 ([1]; Human liver microsomes, 1 μM, 0.5 mg/ml protein, NADPH): 3.4 min | Remaining (T = 60 min) ([1]; Human liver microsomes): 0.00% | Remaining (T = NCF60 min) ([1]; Human liver microsomes): 96% | CL ([2]; Mouse liver microsomes): 35.1 µL/min/mg | CLint ([2]; Mouse liver microsomes): 139 mL/min/kg | T1/2 [2, 5]: 39.5 min | Remaining (T = 60 min) ([2]; Mouse liver microsomes): 36% | Remaining (T = NCF60 min) ([2]; Mouse liver microsomes): 110%

CO[C@@H]1C[C@H](C[C@@H](C)[C@@H]2CC[C@H](C)/C=C(\C)[C@@H](O)[C@@H](OC)C(=O)[C@H](C)C[C@H](C)/C=C/C=C/C=C(\C)C(NS(=O)(=O)c3ccccc3)C[C@@H]3CC[C@@H](C)[C@@](O)(O3)C(=O)C(=O)N3CCCC[C@H]3C(=O)O2)CC[C@H]1O (some centres unmarked) [Compound 16]
inhibition of S6K1 (Thr389) phosphorylation in the absence of FKBP12 (in words) ([3]; FKBP12 knock-out cells): comparable to that of RAD001 | inhibition at 10 µM ([3]; Homo sapiens, HEK-293T, FKBP12 knock-out cells, 10 μM (highest tested concentration)): ~70% | fold lower potency compared with RAD001 (by IC50) [4]: ~28 fold | extent of inhibition of S6K1 (Thr389) phosphorylation [4]: complete inhibition

COc1ccc(NC2C[C@@H]3CC[C@@H](C)[C@@](O)(O3)C(=O)C(=O)N3CCCCC3C(=O)O[C@H]([C@H](C)C[C@@H]3CC[C@@H](O)[C@H](OC)C3)CC[C@H](C)/C=C(\C)[C@@H](O)[C@@H](OC)C(=O)[C@H](C)C[C@H](C)/C=C/C=C/C=C/2C)cc1 (stereo partly drawn) [Compound 47, (3S,6S,7E,9R,10R,12R,14S,15E,17E,19E,23S,26R,27R,34aS)-9,27-dihydroxy-3-((R)-1-((1S,3R,4R)-4-hydroxy-3-methoxycyclohexyl)propan-2-yl)-10-methoxy-21-((4-methoxyphenyl)amino)-6,8,12,14,20,26-hexamethyl-5,6,9,10,12,13,14,21,22,23,24,25,26,27,32,33,34,34a-octadecahydro-3H-23,27-epoxypyrido[2,1-c][1]oxa[4]azacyclohentriacontine-1,11,28,29(4H,31H)-tetraone]
inhibition of S6K1 (Thr389) phosphorylation in the absence of FKBP12 (in words) ([3]; FKBP12 knock-out cells): did not inhibit S6K1 (Thr389)phosphorylation at any tested concentrations | selectivity for FKBP12 compared with RAD001 (in words) [3]: relatively more selective to FKBP12 compared with RAD001 | IC50 [4]: 69 nM | fold lower potency compared with RAD001 (by IC50) [4]: 219 fold | extent of inhibition of S6K1 (Thr389) phosphorylation [4]: near complete inhibition

CO[C@@H]1C[C@H](C[C@@H](C)[C@@H]2CC[C@H](C)/C=C(\C)[C@@H](O)[C@@H](OC)C(=O)[C@H](C)C[C@H](C)/C=C/C=C/C=C(\C)C(Nc3cnccn3)C[C@@H]3CC[C@@H](C)[C@@](O)(O3)C(=O)C(=O)N3CCCCC3C(=O)O2)CC[C@H]1O (some centres unmarked) [Compound 52]
inhibition of S6K1 (Thr389) phosphorylation in the absence of FKBP12 (in words) ([3]; FKBP12 knock-out cells): did not inhibit S6K1 (Thr389)phosphorylation at any tested concentrations | selectivity for FKBP12 compared with RAD001 (in words) [3]: selective to FKBP12 | IC50 [4]: 9.15 nM | fold lower potency compared with RAD001 (by IC50) [4]: 25 fold | extent of inhibition of S6K1 (Thr389) phosphorylation [4]: near complete inhibition

CO[C@@H]1C[C@H](C[C@@H](C)[C@@H]2CC[C@H](C)/C=C(\C)[C@@H](O)[C@@H](OC)C(=O)[C@H](C)C[C@H](C)/C=C/C=C/C=C(\C)C(Nc3cccc(C#N)c3)C[C@@H]3CC[C@@H](C)[C@@](O)(O3)C(=O)C(=O)N3CCCCC3C(=O)O2)CC[C@H]1O (stereo partly drawn) [Compound 57, 3-(((3S,6S,7E,9R,10R,12R,14S,15E,17E,19E,23S,26R,27R,34aS)-9,27-dihydroxy-3-((R)-1-((1S,3R,4R)-4-hydroxy-3-methoxycyclohexyl)propan-2-yl)-10-methoxy-6,8,12,14,20,26-hexamethyl-1,11,28,29-tetraoxo-1,4,5,6,9,10,11,12,13,14,21,22,23,24,25,26,27,28,29,31,32,33,34,34a-tetracosahydro-3H-23,27-epoxypyrido[2,1-c][1]oxa[4]azacyclohentriacontin-21-yl)amino)benzonitrile]
inhibition of S6K1 (Thr389) phosphorylation in the absence of FKBP12 (in words) ([3]; FKBP12 knock-out cells): inhibited the mTORC1 signaling in a dose dependent manner | selectivity for FKBP12 compared with RAD001 (in words) [3]: relatively not FKBP12 selective | IC50 [4]: 3.68 nM | fold lower potency compared with RAD001 (by IC50) [4]: 44 fold | extent of inhibition of S6K1 (Thr389) phosphorylation [4]: near complete inhibition

CO[C@@H]1C[C@H](C[C@@H](C)[C@@H]2CC[C@H](C)/C=C(\C)[C@@H](O)[C@@H](OC)C(=O)[C@H](C)C[C@H](C)/C=C/C=C/C=C(\C)C(Nc3ccsc3)C[C@@H]3CC[C@@H](C)[C@@](O)(O3)C(=O)C(=O)N3CCCCC3C(=O)O2)CC[C@H]1O (stereo partly drawn) [Compound 60, (3S,6S,7E,9R,10R,12R,14S,15E,17E,19E,23S,26R,27R,34aS)-9,27-dihydroxy-3-((R)-1-((1S,3R,4R)-4-hydroxy-3-methoxycyclohexyl)propan-2-yl)-10-methoxy-6,8,12,14,20,26-hexamethyl-21-(thiophen-3-ylamino)-5,6,9,10,12,13,14,21,22,23,24,25,26,27,32,33,34,34a-octadecahydro-3H-23,27-epoxypyrido[2,1-c][1]oxa[4]azacyclohentriacontine-1,11,28,29(4H,31H)-tetraone]
Remaining (T = 60 min) ([1]; Human liver microsomes): 6.6% | Remaining (T = NCF60 min) ([1]; Human liver microsomes): 99% | CLint scaled at 1 µM [1, 6]: 80.4 mL/min/kg | microsomal CLint at 1 µM [1, 6]: 89.3 µL/min/mg | half-life at 1 µM ([1]; pH 7.2, Human liver microsomes, 1 μM, 0.5 mg/ml protein, NADPH): 16 min | CLint scaled at 1 µM [2, 7]: 370 mL/min/kg | microsomal CLint at 1 µM [2, 7]: 93.5 µL/min/mg | half-life at 1 µM ([2]; CD-1, pH 7.2, Mouse liver microsomes, 1 μM, 0.5 mg/ml protein, NADPH): 14.8 min | Remaining (T = 60 min) ([2]; Mouse liver microsomes): 5.6% | Remaining (T = NCF60 min) ([2]; Mouse liver microsomes): 75%

Rapamycin [reference compound]
CL ([2]; Mouse liver microsomes): 43.1 µL/min/mg | CLint ([2]; Mouse liver microsomes): 171 mL/min/kg | T1/2 [2, 5]: 32.1 min | Remaining (T = 60 min) ([2]; Mouse liver microsomes): 27% | Remaining (T = NCF60 min) ([2]; Mouse liver microsomes): 102%
